In PMC6445240, “Design, synthesis and evaluation of ^18F-labeled cationic carbonic anhydrase IX inhibitors for PET imaging” (Journal of Enzyme Inhibition and Medicinal Chemistry, 2017):
pKi: −log10 of the molar value. Structures can show the parent of a compound that is named as a salt.

Key:
[1] = target: CA-IX (Homo sapiens, UniProt Q16790); assay: stopped-flow CO2 hydration assay, CA-IX; assay type: biochemical; conditions: errors 5–10% from three assays, read-out: Inhibition constant (Ki) CA-IX
[2] = target: CA-II (Homo sapiens, UniProt P00918); assay: stopped-flow CO2 hydration assay, CA-II; assay type: biochemical; conditions: errors 5–10% from three assays, read-out: Inhibition constant (Ki) CA-II
[3] = target: CA-I (Homo sapiens, UniProt P00915); assay: stopped-flow CO2 hydration assay, CA-I; assay type: biochemical; conditions: errors 5–10% from three assays, read-out: Inhibition constant (Ki) CA-I
CA-I, sequence (P00915 whole entry): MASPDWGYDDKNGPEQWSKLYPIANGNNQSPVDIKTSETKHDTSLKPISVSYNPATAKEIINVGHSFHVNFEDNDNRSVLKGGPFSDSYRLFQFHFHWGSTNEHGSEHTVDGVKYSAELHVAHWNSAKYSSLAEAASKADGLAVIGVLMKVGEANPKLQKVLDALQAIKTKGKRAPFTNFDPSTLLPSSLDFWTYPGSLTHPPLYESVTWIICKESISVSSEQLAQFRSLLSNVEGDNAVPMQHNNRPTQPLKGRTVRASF

[4] = target: CA-IV (Homo sapiens, UniProt P22748); assay: stopped-flow CO2 hydration assay, CA-IV; assay type: biochemical; conditions: errors 5–10% from three assays, read-out: Inhibition constant (Ki) CA-IV
CA-IV, sequence (P22748 19-312): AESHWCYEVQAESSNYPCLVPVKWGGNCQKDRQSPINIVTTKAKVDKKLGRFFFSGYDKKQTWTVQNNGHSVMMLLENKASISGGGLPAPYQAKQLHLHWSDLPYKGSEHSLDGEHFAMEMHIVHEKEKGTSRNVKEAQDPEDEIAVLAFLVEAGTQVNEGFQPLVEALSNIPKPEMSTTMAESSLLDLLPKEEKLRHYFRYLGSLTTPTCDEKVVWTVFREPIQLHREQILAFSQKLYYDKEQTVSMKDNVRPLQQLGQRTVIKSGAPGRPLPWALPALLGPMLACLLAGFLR

melting point | pKi [1] | pKi [2] | pKi [3] | pKi [4] | Compound
228 °C | – | – | – | – | C[N+](C)(Cc1ccc(F)cc1)Cc1ccc(C(=O)NCc2ccc(S(N)(=O)=O)cc2)cc1 (as salt: bromide) [Compound 3, N-4-[[[4-(aminosulfonyl)benzyl]amino]carbonyl] benzyl-N,N-dimethyl-4-fluorobenzylammonium bromide]
– | 6.66 | 7.15 | 6.28 | 5.02 | C[N+](C)(Cc1ccc(F)cc1)Cc1ccc(C(=O)NCCc2ccc(S(N)(=O)=O)cc2)cc1 [Compound 2, N-4-[[[2-[4-(aminosulfonyl)phenyl]ethyl]amino]carbonyl]benzyl-N,N-dimethyl-4-fluorobenzylammonium bromide]
– | 6.02 | 6.32 | 6.11 | 5.44 | C[N+](C)(Cc1ccc(F)cc1)Cc1ccc(C(=O)NCc2ccc(S(N)(=O)=O)cc2)cc1 [Compound 3, N-4-[[[4-(aminosulfonyl)benzyl]amino]carbonyl] benzyl-N,N-dimethyl-4-fluorobenzylammonium bromide]

The next lines start with the compound.

Compound | melting point | pKi [1] | pKi [2] | pKi [3] | pKi [4]
C[N+](C)(Cc1ccc(F)cc1)Cc1ccc(C(=O)NCc2cccc(S(N)(=O)=O)c2)cc1 (as salt: bromide) [Compound 1, N-4-[[[3-(aminosulfonyl)benzyl]amino]carbonyl] benzyl-N,N-dimethyl-4-fluorobenzylammonium bromide] | 226 °C | – | – | – | –
C[N+](C)(Cc1ccc(F)cc1)Cc1ccc(C(=O)NCCc2ccc(S(N)(=O)=O)cc2)cc1 (as salt: bromide) [Compound 2, N-4-[[[2-[4-(aminosulfonyl)phenyl]ethyl]amino]carbonyl]benzyl-N,N-dimethyl-4-fluorobenzylammonium bromide] | 215 °C | – | – | – | –
C[N+](C)(Cc1ccc(F)cc1)Cc1ccc(C(=O)NCc2cccc(S(N)(=O)=O)c2)cc1 [Compound 1, N-4-[[[3-(aminosulfonyl)benzyl]amino]carbonyl] benzyl-N,N-dimethyl-4-fluorobenzylammonium bromide] | – | 6.36 | 6.14 | 6.05 | < 4.30
